Measured values taken from PMC11349198, “The activation cascade of the broad-spectrum antiviral bemnifosbuvir characterized at atomic resolution” (PLOS Biology, 2024).

What was measured:
HINT1 = target: T1, HINT1 (Homo sapiens, UniProt P49773); experiment: ITC; assay type: binding; conditions: 1-site model
T1 construct: N-terminal 6xHis with TEV site, tag cut; E. coli; homodimer, 126 residues visible

ADALP1 = target: T2, ADALP1 (Homo sapiens, UniProt Q6DHV7); experiment: X-ray crystal structure, […] Å; assay type: binding; conditions: co-crystallized with AT-8003 (10 mM), pH 5.3 to 6.3; Zn2+; active site
T2 construct: gene MAPDA; N-terminal 6xHis with TEV site, tag cut; E. coli; monomer; Zn; crystals grown with trace alpha-chymotrypsin
T2 sequence (Q6DHV7 1-355): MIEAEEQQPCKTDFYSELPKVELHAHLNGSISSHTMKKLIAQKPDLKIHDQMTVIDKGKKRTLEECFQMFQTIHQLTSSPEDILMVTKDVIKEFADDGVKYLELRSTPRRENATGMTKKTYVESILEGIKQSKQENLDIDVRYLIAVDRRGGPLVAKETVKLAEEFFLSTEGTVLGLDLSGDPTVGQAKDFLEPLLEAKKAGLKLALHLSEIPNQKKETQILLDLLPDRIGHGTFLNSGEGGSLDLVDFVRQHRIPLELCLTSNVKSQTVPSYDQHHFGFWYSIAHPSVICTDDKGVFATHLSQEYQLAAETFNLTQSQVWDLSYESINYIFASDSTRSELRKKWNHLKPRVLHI

T1 sequence (P49773 whole entry): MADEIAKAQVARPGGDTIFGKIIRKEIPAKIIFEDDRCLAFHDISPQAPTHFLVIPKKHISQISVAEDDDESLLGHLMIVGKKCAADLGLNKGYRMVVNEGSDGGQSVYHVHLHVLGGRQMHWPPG

| SMILES | Ka (HINT1) | X-ray crystal structure, 2.44 Å (ADALP1) |
| --- | --- | --- |
| Nc1ncnc2c1ncn2[C@@H]1O[C@H](COP(=O)(O)O)[C@@H](O)[C@H]1O [AMP] | 1.7 10^4 |  |
| C[C@@]1(F)[C@H](O)[C@@H](COP(=O)(O)O)O[C@H]1n1cnc2c(=O)[nH]c(N)nc21 [AT-8001] |  | the product AT-8001 was found bound at the active site |
